Three compounds from ChEMBL document CHEMBL3822430, “Discovery of pyrido[3,4-g]quinazoline derivatives as CMGC family protein kinase inhibitors: Design, synthesis, inhibitory potency and X-ray co-crystal structure” (Eur J Med Chem, 2016) can be followed below.

Where only a bound is given, the exact number is not on record here.

A short description of test [1]: Inhibition of porcine brain CK1 delta/epsilon using CK-S as substrate incubated for 30 mins in presence of [gamma-33 ATP] by liquid scintillation counting analysis. More on the design: species or system Sus scrofa.
The target in test [2] is Dual specificity protein kinase CLK1 (Homo sapiens, UniProt P49759). As to the kind of experiment: Inhibition of GST-tagged human recombinant CLK1 expressed in Escherichia coli using RS peptide as substrate.
Sequence of Dual specificity protein kinase CLK1 (P49759 whole entry): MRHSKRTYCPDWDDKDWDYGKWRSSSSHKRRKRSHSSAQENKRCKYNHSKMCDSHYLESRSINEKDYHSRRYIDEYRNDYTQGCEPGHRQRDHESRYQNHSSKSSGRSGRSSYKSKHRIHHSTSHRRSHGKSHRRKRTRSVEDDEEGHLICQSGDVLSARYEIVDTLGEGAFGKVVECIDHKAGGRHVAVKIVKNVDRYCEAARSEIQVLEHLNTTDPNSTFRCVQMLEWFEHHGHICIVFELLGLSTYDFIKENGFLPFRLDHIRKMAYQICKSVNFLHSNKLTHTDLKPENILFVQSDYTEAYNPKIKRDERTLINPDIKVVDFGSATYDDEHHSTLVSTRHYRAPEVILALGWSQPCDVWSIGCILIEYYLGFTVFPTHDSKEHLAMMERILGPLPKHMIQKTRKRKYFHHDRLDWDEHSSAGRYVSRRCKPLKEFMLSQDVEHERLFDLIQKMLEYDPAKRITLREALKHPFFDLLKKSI
In test [3] the target is Dual specificity tyrosine-phosphorylation-regulated kinase 1A (Rattus norvegicus, UniProt Q63470). As to the kind of experiment: Inhibition of GST-tagged rat recombinant DYRK1A expressed in Escherichia coli using myelin basic protein as substrate incubated for 30 mins in presence of [gamma-33 ATP] by liquid scintillation counting analysis.
The target in test [4] is Cyclin-dependent kinase 5/CDK5 activator 1 (Homo sapiens, UniProt Q00535). As to the kind of experiment: Inhibition of GST-tagged human recombinant CDK5/p25 expressed in Escherichia coli using histone H1 as substrate incubated for 30 mins in presence of [gamma-33 ATP] by liquid scintillation counting analysis.
Sequence of Cyclin-dependent kinase 5/CDK5 activator 1 (Q00535 whole entry): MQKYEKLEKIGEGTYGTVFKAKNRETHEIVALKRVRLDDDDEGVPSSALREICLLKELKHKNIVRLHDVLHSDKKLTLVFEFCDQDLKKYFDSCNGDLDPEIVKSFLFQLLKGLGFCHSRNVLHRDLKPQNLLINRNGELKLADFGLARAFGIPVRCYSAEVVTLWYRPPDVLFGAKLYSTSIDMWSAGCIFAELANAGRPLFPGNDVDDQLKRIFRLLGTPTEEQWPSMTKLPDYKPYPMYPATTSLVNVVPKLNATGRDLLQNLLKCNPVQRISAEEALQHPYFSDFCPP
Sequence of Cyclin-dependent kinase 5/CDK5 activator 1 (Q15078 whole entry, further chain): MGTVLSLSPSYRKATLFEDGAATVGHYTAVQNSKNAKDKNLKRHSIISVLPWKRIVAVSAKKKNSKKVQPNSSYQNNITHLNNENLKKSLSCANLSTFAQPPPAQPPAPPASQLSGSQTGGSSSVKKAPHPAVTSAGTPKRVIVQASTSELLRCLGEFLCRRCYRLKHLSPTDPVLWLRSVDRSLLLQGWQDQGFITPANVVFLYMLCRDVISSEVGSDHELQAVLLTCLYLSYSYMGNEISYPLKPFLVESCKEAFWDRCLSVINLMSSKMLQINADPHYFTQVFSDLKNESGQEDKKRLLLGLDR
Test [5] addresses Glycogen synthase kinase-3 (Sus scrofa, UniProt B2LUN4+I6LNT8). As to the kind of experiment: Inhibition of porcine brain GSK3alpha/beta using GS-1 as substrate incubated for 10 mins in presence of [gamma-32 ATP] by liquid scintillation counting analysis.

For the compound `Nc1ncc2cc3cnccc3c(N)c2n1`, the IC50 (commonly the concentration that gives 50% inhibition) worked out at 5800 nM in test [1]; 41 nM in test [2]; 28 nM in test [3]; 4800 nM in test [4]; 9100 nM in test [5].
The matching figures for `Nc1ncc2cc3cnccc3cc2n1`: 800 nM, 190 nM, 180 nM, greater than 10000 nM and greater than 10000 nM.
Take `Nc1ncc2cc3cnccc3c([N+](=O)[O-])c2n1`: the IC50 in test [1] was 780 nM; in test [2] it was 69 nM; in test [3], 620 nM; in test [4], greater than 10000 nM; in test [5], 2200 nM.
